Some test systems named below: 786-0 renal; COLO 205 colon; HCT-116 colon; OVCAR-5 ovarian; RXF 393 renal; SN12C renal; SNB-19 CNS; SW-620 colon; UO-31 renal; PC-3 prostate.
Common to all, as to experiment: NCI tumour cell line growth inhibition, 48 h

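These data come from cells grown in 96-well plates and exposed to compound for 48 hours at five concentrations. Here, GI50 denotes the concentration required for 50% inhibition of growth. The concentration for full growth arrest is given as TGI.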

In PubChem BioAssay (NCI) one finds TGI and GI50 data, which are given here for 17 compounds.

For `O=S(=O)([O-])[O-].[Fe+2].[OH2+]c1c(Cl)cc(Cl)cc1/C=N/Nc1ccccn1`, the TGI with 786-0 renal worked out at 1.92 µM; in the experiment on COLO 205 colon it was 3.47 µM; in the experiment with HCT-116 colon it was 2.63 µM; in the experiment on OVCAR-5 ovarian, 5.97 µM; with RXF 393 renal, 1.9 µM; in the experiment on SN12C renal it was 2.82 µM. The TGI with SNB-19 CNS was 3.64 µM; with SW-620 colon it was 3.49 µM; in the experiment with UO-31 renal it was 3.13 µM.
As to `CC(=O)[C@]12OC(=O)C3=C1[C@H](CC[C@@H]3C)[C@@H](C)C[C@H]2C=C(C)C`, the TGI stood at 15.7 µM with 786-0 renal; 16.1 µM in the experiment with COLO 205 colon; 13.4 µM with HCT-116 colon; 15.2 µM with OVCAR-5 ovarian; 21.1 µM with PC-3 prostate; 15.8 µM with SN12C renal. Besides, the TGI is 16.4 µM with SNB-19 CNS, 15.3 µM in the experiment on SW-620 colon and 15.2 µM in the experiment with UO-31 renal.
`O=C1O/C(=C\C=C\CO)C=C1/C=C/CO`: the TGI in the experiment on 786-0 renal worked out at 33.7 µM; with COLO 205 colon it was 5.16 µM; in the experiment on HCT-116 colon, 29.9 µM; with OVCAR-5 ovarian, 41.7 µM; with PC-3 prostate, 42.5 µM; in the experiment with RXF 393 renal it was 38.3 µM. For the same compound, the TGI in the experiment with SN12C renal was determined as 80.4 µM; in the experiment on SNB-19 CNS it was 51.4 µM; in the experiment on SW-620 colon, 45.9 µM; in the experiment on UO-31 renal, 30.8 µM.
In the case of `N=C(N)SCCN1CCCCC1`, the TGI in the experiment with 786-0 renal is 51.5 µM; in the experiment with COLO 205 colon, above 100 µM; in the experiment on HCT-116 colon, above 100 µM; in the experiment with OVCAR-5 ovarian, above 100 µM; with PC-3 prostate, 45.8 µM; in the experiment with RXF 393 renal, 32.6 µM. The TGI in the experiment on SN12C renal was 73.4 µM; in the experiment with SW-620 colon it was above 100 µM; in the experiment on UO-31 renal it was above 100 µM.
Regarding `NC(=S)N/N=C1\CC(c2ccccc2)Nc2ccccc21` (stereo unspecified), the TGI with COLO 205 colon was 73.3 µM; in the experiment on SN12C renal, above 100 µM; in the experiment with SNB-19 CNS, above 100 µM; in the experiment on SW-620 colon, above 100 µM; in the experiment with UO-31 renal it was 80.7 µM.
`Nc1ccc(S(=O)(=O)NCCS(=O)(=O)O)cc1`: the TGI in the experiment with 786-0 renal, in the experiment with HCT-116 colon, in the experiment on OVCAR-5 ovarian, in the experiment with PC-3 prostate, with RXF 393 renal and in the experiment on SN12C renal was above 100 µM each time. Further, the TGI in the experiment on SNB-19 CNS, in the experiment with SW-620 colon and in the experiment on UO-31 renal was above 100 µM throughout.
With `Cc1cccc(/C=C2/C(=O)Nc3ccccc32)n1`, the TGI is 27.3 µM in the experiment with 786-0 renal; above 57 µM in the experiment on COLO 205 colon; 26.2 µM in the experiment with HCT-116 colon; 27 µM in the experiment on OVCAR-5 ovarian; above 60.9 µM in the experiment with PC-3 prostate; 27.2 µM in the experiment on RXF 393 renal. Further, the TGI with SN12C renal is 37.9 µM; in the experiment with SNB-19 CNS it was above 58.9 µM; with SW-620 colon, 49.7 µM; in the experiment with UO-31 renal, 30.1 µM.
For `CCCCCCCCc1ccc(CCC(N)(CO)CO)cc1`, the GI50 in the experiment with COLO 205 colon is 1.58 µM; in the experiment with OVCAR-5 ovarian, 1.64 µM; in the experiment with PC-3 prostate, 1.75 µM; in the experiment on RXF 393 renal it was 1.52 µM; in the experiment on SN12C renal, 3.5 µM; in the experiment with SW-620 colon, 1.64 µM. Further, in the experiment with UO-31 renal, the GI50 was 1.7 µM. The TGI with COLO 205 colon was found to be 2.92 µM; with OVCAR-5 ovarian, 3.08 µM; in the experiment on PC-3 prostate it was 3.41 µM; with RXF 393 renal, 2.85 µM; with SN12C renal, 13.9 µM; in the experiment on SW-620 colon, 3.08 µM. In the experiment on UO-31 renal, this compound returned a TGI of 3.4 µM.
On to `COc1cc(O)c2c(=O)c(OC)c(-c3ccc(OC)c(OC)c3)oc2c1.[Zn+2]`, for which the TGI is above 100 µM in the experiment on 786-0 renal; above 100 µM in the experiment with COLO 205 colon; above 100 µM in the experiment with HCT-116 colon; above 100 µM with OVCAR-5 ovarian; above 100 µM in the experiment on PC-3 prostate; 45.6 µM in the experiment on RXF 393 renal. For the same compound, the TGI in the experiment on SN12C renal, in the experiment on SNB-19 CNS, in the experiment on SW-620 colon and in the experiment on UO-31 renal was above 100 µM in each case. In addition, the GI50 with HCT-116 colon is 22.6 µM; in the experiment with OVCAR-5 ovarian, above 100 µM; in the experiment on PC-3 prostate, 9.18 µM; in the experiment with SNB-19 CNS, 4.31 µM.
On to `Cc1ncc(COP(=O)(O)O)c(C)c1O`, for which the TGI in the experiment with 786-0 renal, in the experiment on HCT-116 colon, in the experiment with OVCAR-5 ovarian, in the experiment with PC-3 prostate, with RXF 393 renal and with SN12C renal was above 100 µM throughout. For the same compound, the TGI in the experiment on SNB-19 CNS, in the experiment on SW-620 colon and in the experiment on UO-31 renal was above 100 µM each time.
For `CC(=O)C(N=NC1CCC(S(=O)(=O)NB2N=CS2)CC1)C(=O)Nc1ccccc1C` (stereo unspecified), the TGI with COLO 205 colon came to 37.2 µM; in the experiment with HCT-116 colon it was 26.3 µM; in the experiment on OVCAR-5 ovarian, 39.3 µM; with RXF 393 renal, 35.9 µM; in the experiment with SN12C renal, 34.7 µM; in the experiment on SNB-19 CNS, 31.2 µM. Moreover, the TGI turned out to be 30 µM in the experiment with SW-620 colon and 34 µM in the experiment with UO-31 renal.
With `C[N+]1(c2ccccc2)C=C(c2ccccc2)SC1=S` (stereo unspecified), the TGI in the experiment on 786-0 renal, in the experiment on COLO 205 colon, in the experiment with HCT-116 colon, in the experiment with OVCAR-5 ovarian, in the experiment with PC-3 prostate and with RXF 393 renal was above 100 µM throughout. Also, the TGI with SN12C renal, in the experiment on SNB-19 CNS, with SW-620 colon and in the experiment with UO-31 renal was above 100 µM in each case.
On to `O=C(/C=C/c1ccc(O)cc1)c1cc(-c2cc(CCC(=O)c3ccc(O)cc3O)ccc2O)c(O)cc1O`, for which the TGI in the experiment on 786-0 renal was above 50 µM; in the experiment on COLO 205 colon, 22.6 µM; in the experiment on HCT-116 colon it was above 50 µM; in the experiment with OVCAR-5 ovarian, above 50 µM; with PC-3 prostate, above 50 µM; in the experiment on RXF 393 renal, above 50 µM. For the same compound, the TGI in the experiment with SN12C renal, in the experiment with SNB-19 CNS, with SW-620 colon and in the experiment on UO-31 renal was above 50 µM throughout.
In the case of `C[N+]1(C)C/C(=C\c2ccc(O)cc2)C(=O)/C(=C/c2ccc(O)cc2)C1`, the TGI in the experiment with 786-0 renal, in the experiment on COLO 205 colon, in the experiment on HCT-116 colon, in the experiment on OVCAR-5 ovarian, with RXF 393 renal and with SN12C renal was above 100 µM throughout. Further, the TGI in the experiment on SNB-19 CNS, in the experiment on SW-620 colon and with UO-31 renal was above 100 µM in each case.
Turning to `C=C(C[C@@H](O)[C@H](C)NC(=O)OCc1ccccc1)C(=O)OC(C)(C)C`, the TGI in the experiment on COLO 205 colon, in the experiment with HCT-116 colon, in the experiment with OVCAR-5 ovarian, in the experiment on PC-3 prostate, with SN12C renal and in the experiment on SNB-19 CNS was above 100 µM each time. In addition, the TGI in the experiment on SW-620 colon and in the experiment with UO-31 renal was above 100 µM each time.
For the compound `CCOc1ccc(N=Nc2ccc(-c3ccc(N=Nc4c(O)ccc5cc(S(=O)(=O)O)cc(S(=O)(=O)O)c45)cc3)cc2)cc1`, the TGI in the experiment with 786-0 renal, in the experiment on COLO 205 colon, with HCT-116 colon, in the experiment on OVCAR-5 ovarian, in the experiment with PC-3 prostate and in the experiment on RXF 393 renal was above 100 µM in each case. The TGI in the experiment on SNB-19 CNS, with SW-620 colon and in the experiment with UO-31 renal was above 100 µM throughout.
As for `CC(=O)c1c(C)cc2cccc(OC3OC(CO)C(O)C(O)C3O)c2c1O` (stereo unspecified) (tested in a mixture with another compound), the TGI with 786-0 renal, in the experiment with COLO 205 colon, in the experiment on HCT-116 colon, with OVCAR-5 ovarian, with PC-3 prostate and in the experiment on RXF 393 renal was above 100 µM throughout. In addition, the TGI in the experiment on SN12C renal, in the experiment with SNB-19 CNS and in the experiment with SW-620 colon was above 100 µM each time.
